Measured values taken from patent US9205050B2, “Antibiotic formulations, unit doses, kits and methods” (Bayer Intellectual Property GmbH, priority 2005, dated 2015).
Structures can show the parent of a compound that is named as a salt. Where two headings read alike, the source gives them in different places.

What was measured:
[1] = particle size distribution of nebulized aerosol, laser diffraction; format: physicochemical; conditions: solutions in WFI 60 to 140 mg/ml, fill 2 to 4 ml
Procedure: Droplet size distributions for aerosolized drug and placebo solutions were measured using the Sympatec HELOS laser diffraction spectrometer. In preparation for a run, the nebulizer was connected to the compressed air line, the flow turned on and the pressure regulator set to a driving pressure to generate a flow rate of 8 LPM through the nebulizer. The flow was then turned off by closing the flow shut-off valve. Next, the nebulizer was connected to a “T” piece with one port plugged, and the other port coupled to a mouthpiece. The nebulizer was then filled with drug solution, and mounted so that nebulizer mouthpiece was aligned parallel to the nozzle of the Rodos dry powder disperser apparatus already installed in the spectrometer. The laser diffraction system was setup to automatically trigger when it sensed the presence of the aerosol generated by the nebulizer. Measurements were initiated by opening the shut-off valve to pressurize the nebulizer and generate the aerosol. A total of 6 particle size distribution scans were taken for each nebulizer run, and then averaged to provide representative size distribution results.

[2] = solubility study of Vancomycin HCl in water (saturated solution, UV 280 nm); format: physicochemical; conditions: thermodynamic from solid, water for injection, stirred 48 h, filtered, read-out: maximum solubility in water
Procedure: A saturated solution of Vancomycin HCl in water for injection was prepared by adding under stirring the active agent to the solvent.
Suspension was stirred for 48 h in order to reach the equilibrium conditions for the dissolution.
Suspensions was filtered first through a paper filter and then through a 0.45 μm PVDF filter discarding the first drops of solution which could have been diluted because of the binding of the product to the membrane.
The filtrated solutions of Vancomycin HCl in water coming from the respective saturated solutions, was diluted to reach a final concentration which gave an Abs value at λ=280 nm included into the calibration curve.
Each diluted solution was analysed in triplicate with UV at λ=280 nm. For each solution the absorbances have been mediated and the final value has been substituted in the respective calibration curve equation to calculate the concentration.

[3] = 14-consecutive day face mask inhalation toxicity and recovery; format: in vivo, dog; conditions: both sexes, beagle, dog, in vivo, inhaled, high exposure level (60 min)
Procedure: (§1) This Example involved evaluating the potential toxicity and recovery resulting from a 14-consecutive day, face mask inhalation administration of vancomycin hydrochloride to beagle dogs.
(§2) Within 2 hours prior to usage, a vancomycin nebulizer solution having a concentration of 120 mg/ml was formed by dissolving vancomycin hydrochloride (available from Alpharma, Copenhagen, Denmark) in sterile water for injection USP (available from B. Braun Medical Inc., Bethlehem, Pa.). The solution was used to generate aerosolized vancomycin for all vancomycin exposure groups.
(§3) The exposure system consisted of a single, cylindrical, plexiglass inhalation chamber (volume of ˜23.7 L, 14.61-cm radius, 35.56-cm height). The chamber was supplied with two Aerotech II nebulizers operated at ˜40 psi. Nebulized test article and nebulizer air supply was diluted with ˜10 L/min HEPA-filtered dilution air. The flow through the system was ˜36 L/min.
(§4) The aerosolized vancomycin was administered via a face mask to 3 groups of male and female beagle dogs for durations of 15 min (Low), 30 min (Mid), and 60 min (High). A control group was exposed for 60 min to aerosols generated from normal saline solution, i.e., 0.9% sodium chloride injection USP (available from B. Braun Medical Inc.).
(§5) Groups of dogs from the Control and High level 14-day exposures were also studied following a 14-day recovery period. Endpoints for all groups of dogs included physical examinations, clinical observations, body weights, opthalmology, cardiovascular EKG, clinical pathology (hematology, clinical chemistry), urinalyses, organ weights, histopathology, and toxicokinetics.

beagle dogs = assay: as above; format: in vivo, dog
Procedure: as §1, §2, §3, §4, §5

[4] = pH of Vancomycin HCl solutions, bulk solution and reconstituted lyophilizate; format: physicochemical
Procedure: […] On the final solution, pH and density were measured and appearance was evaluated. After lyophilization the following analyses were performed on the final product: • water content by Karl Fischer titration; • appearance of the cake, • reconstitution time, • appearance/clarity, • pH after reconstitution.

CD rats = assay: 14-consecutive day nose-only inhalation toxicity and recovery; format: in vivo, rat
Procedure: This Example involved evaluating the potential toxicity and recovery resulting from a 14-consecutive day, nose-only inhalation administration of vancomycin hydrochloride (vancomycin) to CD rats.
The solution was used to generate aerosolized vancomycin for all vancomycin exposure groups.
Nose-only exposures were conducted in a “flow-past” cylindrical inhalation chamber placed inside a steel-framed Plexiglas secondary containment box. The chamber contained 48 animal ports, each compatible with a single nose-only exposure tube, aerosol concentration sampling device (e.g., filter), or oxygen monitor.
The total air flow through the exposure system was balanced to achieve individual animal port flows of ˜500 mL/min (port flow approximated based on total chamber flow). Measured flows included sample flow rate, nebulizer flow rate, dilution flow rate (chamber make-up air), and chamber exhaust flow.
Vancomycin solution was aerosolized with two Aerotech II nebulizers operated at 20 psi driving pressure. The target aerosol Vancomycin concentration for all exposure levels was ˜1.0 mg/L.
Aerosolized vancomycin was administered to 3 groups of male and female CD rats (available from Charles River Laboratories, Kingston, N.Y.) for durations of 30 min (Low), 90 min (Mid), and 180 min (High). A control group was exposed for 180 min to aerosols generated from a normal saline solution. Groups of rats from the Control and High level 14-day exposures were also studied following a 14-day recovery period. Endpoints included clinical observations, body weights, clinical pathology (hematology, clinical chemistry), urinalyses, organ weights, and histopathology.

[5] = density of Vancomycin HCl solutions; format: physicochemical
Procedure: On the final solution, pH and density were measured and appearance was evaluated. […]

[6] = osmolality of gentamicin sulfate solutions; format: physicochemical
Procedure: Solubility in water was determined via visual assessment. Osmolality and pH were also determined. […] The solubility was determined by visual assessment.

[7] = exposure aerosol from 120 mg/ml solution

Question: Which results are given for `CN[C@H](CC(C)C)C(=O)N[C@H]1C(=O)N[C@@H](CC(N)=O)C(=O)N[C@H]2C(=O)N[C@H]3C(=O)N[C@H](C(=O)N[C@H](C(=O)O)c4cc(O)cc(O)c4-c4cc3ccc4O)[C@H](O)c3ccc(c(Cl)c3)Oc3cc2cc(c3O[C@@H]2O[C@H](CO)[C@@H](O)[C@H](O)[C@H]2O[C@H]2C[C@](C)(N)[C@H](O)[C@H](C)O2)Oc2ccc(cc2Cl)[C@H]1O` [Vancomycin HCl, vancomycin hydrochloride]?
Answer: volume weighted median size [1]: 2-3 μm; solubility at 48 h [2]: 141 mg/mL; NOAEL at 14 days ([3]; read-out: no observed adverse effect level (NOAEL), deposited lung dose): 9 mg/kg; NOAEL at 14 days ([3]; read-out: no observed adverse effect level (NOAEL), inhaled dose): 45 mg/kg; recovery of histopathological effects (beagle dogs; 14-day recovery, High level): complete after 14 days; tolerability of exposures (beagle dogs; 15, 30, 60 min/day, 14 days, about 1.4-1.5 mg/L): well-tolerated; physical examinations, clinical observations, opthalmology, ECG, hematology, clinical chemistry, urinalyses, gross necropsy, organ weights (beagle dogs; all exposure levels): no vancomycin related effects; survival (beagle dogs; all exposure levels, 14 days): All dogs survived to scheduled necropsy; effects of exposure in histopathology (beagle dogs; end of 14-day exposure): limited to microscopic findings in the lung; mean particle size, mass median aerodynamic diameter (beagle dogs; [7]): 1.9-2.6 μm; pH ([4]; 100.12 mg/mL in water): 3.8-4.1; pH ([4]; 110.16 mg/mL in water): 3.7-3.9; pH ([4]; 120.26 mg/mL in water): 3.6-3.8; pH ([4]; 130.5 mg/mL in water): 3.5-3.7; pH ([4]; 140.8 mg/mL in water): 3.4-3.5; no observed effect level (CD rats; 14-day inhalation): not established; tolerability of exposures (CD rats; 30, 90, 180 min/day, 14 days, about 1.2 mg/L): well-tolerated; lung weight increase (CD rats; High exposure level (180 min)): ~19 % of control; lung weight increase (CD rats; Low exposure level (30 min)): approximately 8 % of control; increase in aspartate aminotransferase (AST) values (CD rats; Mid and High exposure levels): 28-46%; neutrophils (hematology) (CD rats; Mid and High exposure levels): statistically significant increase; lung weight increase (CD rats; Mid exposure level (90 min)): ~20 % of control; histopathologic findings after recovery (CD rats; after 14 days of recovery, High level): substantial diminution of these findings; body weight (CD rats; all exposure levels): no vancomycin treatment related effects; clinical observations (CD rats; all exposure levels): no vancomycin related effects; serum indicators of kidney function or urinalysis (CD rats; all exposure levels): No vancomycin related changes; survival (CD rats; all exposure levels, 14 days): All rats survived to scheduled necropsy; exposure related histopathologic findings (CD rats; end of 14-day exposure): limited to the respiratory tract; mean particle size, mass median aerodynamic diameter (CD rats; [7]): 2.0-2.6 μm; Density ([5]; 100.12 mg/mL in water): 1.027 g/mL; Density ([5]; 110.16 mg/mL in water): 1.034 g/mL; Density ([5]; 120.26 mg/mL in water): 1.037 g/mL; Density ([5]; 130.5 mg/mL in water): 1.042 g/mL; Density ([5]; 140.8 mg/mL in water): 1.046 g/mL

Question: With gentamicin sulfate as the molecule, how does the Osmolality ([6]; 20 mg/ml active in 0.9% saline) read?
Answer: The Osmolality was 318 mOsmol/kg.

Question: What about the Osmolality ([6]; 20 mg/ml active in WFI) of the same molecule?
Answer: Its Osmolality is 61 mOsmol/kg.

Question: And the Osmolality ([6]; 40 mg/ml active in 0.9% saline)?
Answer: The Osmolality was 353 mOsmol/kg.

Question: And the Osmolality ([6]; 40 mg/ml active in WFI)?
Answer: The Osmolality was 101 mOsmol/kg.

Question: And the Osmolality ([6]; 80 mg/ml active in 0.9% saline)?
Answer: Its Osmolality is 445 mOsmol/kg.

Question: And the Osmolality ([6]; 80 mg/ml active in WFI)?
Answer: The Osmolality was 197 mOsmol/kg.

Question: And the Osmolality ([6]; 120 mg/ml active in WFI)?
Answer: Its Osmolality is 275 mOsmol/kg.

Question: And the Osmolality ([6]; 200 mg/ml active in WFI)?
Answer: Its Osmolality is 524 mOsmol/kg.

Question: And the Osmolality ([6]; 250 mg/ml active in WFI)?
Answer: The Osmolality was 1178 mOsmol/kg.

Question: And the Osmolality ([6]; 300 mg/ml active in WFI)?
Answer: The Osmolality was 2013 mOsmol/kg.
